Assay results: ChEMBL document CHEMBL3880437, “Modulators of the prostacyclin (PGI2) receptor useful for the treatment of disorders related thereto” (2014)
Active and inactive are the calls of the source. No cut-off for these calls is given here.

What was measured:
[1] = Stability of the compound in Cremophor RH40 assessed as observable compound degradation after 4 weeks in glass vial at 50 degC; type: physicochemical; conditions: 672 h
[2] = Stability of the compound in Imwitor 742 assessed as observable compound degradation after 4 weeks in glass vial at 50 degC; type: physicochemical; conditions: 672 h
[3] = Stability of the compound in TPGS 1000 assessed as observable compound degradation after 4 weeks in glass vial at 50 degC; type: physicochemical; conditions: 672 h
[4] = Stability of the compound in Imwitor 742 assessed as observable API assay loss after 4 weeks in glass vial at 50 degC; type: physicochemical; conditions: 672 h
Platelet = experiment: Inhibition of ADP-induced platelet aggregation in human platelet rich plasma pre-incubated for 1 min before ADP addition and measured 3 mins post ADP addition by aggregometry; type: functional
[5] = Stability of the compound in TPGS 1000 assessed as observable API assay loss after 4 weeks in glass vial at 50 degC; type: physicochemical; conditions: 672 h
[6] = Stability of the compound in Cremophor RH40 assessed as observable API assay loss after 4 weeks in glass vial at 50 degC; type: physicochemical; conditions: 672 h
Rattus norvegicus = experiment: Inhibition of right ventricle hypertrophic response to monocrotaline-induced pulmonary arterial hypertension assessed as ratio of right ventricular weight to left ventricle plus septum in Wistar rat at 30 mg/kg administered through oral gavage twice daily for 21 consecutive days starting 24 hrs after monocrotaline challenge; type: functional, organism-based
Prostacyclin receptor = Prostacyclin receptor (Homo sapiens, UniProt P43119); experiment: Agonist activity at human recombinant prostacyclin receptor expressed in CHO-K1 cells assessed as induction of cAMP accumulation incubated for 1 hr by HTRF assay; type: functional, cell-based
Chain of Prostacyclin receptor (P43119 whole entry): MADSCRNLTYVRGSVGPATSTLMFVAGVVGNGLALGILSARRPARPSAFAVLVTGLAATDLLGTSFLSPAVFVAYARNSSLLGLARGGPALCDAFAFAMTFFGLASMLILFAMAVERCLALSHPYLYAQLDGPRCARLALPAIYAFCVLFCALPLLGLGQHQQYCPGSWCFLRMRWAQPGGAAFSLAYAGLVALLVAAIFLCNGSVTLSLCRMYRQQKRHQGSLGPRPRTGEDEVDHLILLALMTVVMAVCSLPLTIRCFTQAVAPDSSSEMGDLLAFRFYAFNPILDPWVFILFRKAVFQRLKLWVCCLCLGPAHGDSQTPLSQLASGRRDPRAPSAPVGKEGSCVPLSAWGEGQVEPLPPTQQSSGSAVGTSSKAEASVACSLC

| Compound | IC50 (Platelet) | EC50 (Prostacyclin receptor) | other results |
| --- | --- | --- | --- |
| O=C(O)COC[C@H]1CC[C@H](COC(=O)N(c2ccccc2)c2ccc(Cl)cc2)CC1 [listing 2 of 2 here] |  |  | Activity (Rattus norvegicus): Active |
| O=C(O)COC[C@H]1CC[C@H](COC(=O)N(c2cccc(F)c2)c2ccc(F)c(F)c2)CC1 | 0.0105 to 1.59 µM | 0.0027 to 2.65 µM |  |
| O=C(O)COC[C@H]1CC[C@H](COC(=O)N(c2ccc(F)cc2)c2ccc(F)cc2)CC1 | 0.0105 to 1.59 µM | 0.0027 to 2.65 µM |  |
| Cc1ccc(N(C(=O)NC[C@H]2CC[C@H](COCC(=O)O)CC2)c2ccccc2)cc1 | 0.0105 to 1.59 µM | 0.0027 to 2.65 µM |  |
| O=C(O)COC[C@H]1CC[C@H](CNC(=O)N(c2ccccc2)c2ccc(F)cc2)CC1 | 0.0105 to 1.59 µM | 0.0027 to 2.65 µM |  |
| COc1ccc(N(C(=O)OC[C@H]2CC[C@H](COCC(=O)O)CC2)c2ccccc2)cc1 | 0.0105 to 1.59 µM | 0.0027 to 2.65 µM |  |
| O=C(O)COC[C@H]1CC[C@H](COC(=O)N(c2ccccc2)c2ccc(F)cn2)CC1 | 0.0105 to 1.59 µM | 0.0027 to 2.65 µM |  |
| COc1cccc(N(C(=O)OC[C@H]2CC[C@@H](COCC(=O)O)CC2)c2ccccc2)c1 | 0.0105 to 1.59 µM | 0.0027 to 2.65 µM |  |
| O=C(O)COC[C@H]1CC[C@H](COC(=O)N(c2cccc(F)c2)c2cccc(F)c2)CC1 | 0.0105 to 1.59 µM | 0.0027 to 2.65 µM |  |
| COc1cccc(N(C(=O)OC[C@H]2CC[C@H](COCC(=O)O)CC2)c2cccc(F)c2)c1 | 0.0105 to 1.59 µM | 0.0027 to 2.65 µM |  |
| O=C(O)COC[C@H]1CC[C@H](COC(=O)N(c2ccccc2)c2ccc(F)c(Cl)c2)CC1 | 0.0105 to 1.59 µM | 0.0027 to 2.65 µM |  |
| O=C(O)COC[C@H]1CC[C@H](COC(=O)N(c2ccccc2)c2cc(F)cc(F)c2)CC1 | 0.0105 to 1.59 µM | 0.0027 to 2.65 µM |  |

More lines, main results first:

| IC50 (Platelet) | EC50 (Prostacyclin receptor) | Compound | other results |
| --- | --- | --- | --- |
| 0.0105 to 1.59 µM |  | O=C(O)COC[C@H]1CC[C@H](COC(=O)N(c2ccccc2)c2ccc(Cl)cc2)CC1 [listing 1 of 2 here] | Stability [1]: Stable; Stability [2]: Stable; Stability [3]: Stable; Stability [4]: Stable; Stability [5]: Stable; Stability [6]: Stable |
| 0.0105 to 1.59 µM | 0.0027 to 2.65 µM | Cc1ccc(N(C(=O)OC[C@H]2CC[C@H](COCC(=O)O)CC2)c2cccc(F)c2)cc1F |  |
| 0.0105 to 1.59 µM | 0.0027 to 2.65 µM | O=C(O)COC[C@H]1CC[C@H](COC(=O)N(c2ccccc2)c2cncc(F)c2)CC1 |  |
| 0.0105 to 1.59 µM | 0.0027 to 2.65 µM | O=C(O)COC[C@H]1CC[C@H](CNC(=O)N(c2ccccc2)c2cccc(F)c2F)CC1 |  |
| 0.0105 to 1.59 µM | 0.0027 to 2.65 µM | O=C(O)COC[C@H]1CC[C@H](COC(=O)Nc2ccccc2)CC1 |  |
| 0.0105 to 1.59 µM | 0.0027 to 2.65 µM | O=C(O)COC[C@H]1CC[C@H](COC(=O)N(c2ccccc2)c2ccccn2)CC1 |  |
| 0.0105 to 1.59 µM | 0.0027 to 2.65 µM | O=C(O)COC[C@H]1CC[C@H](COC(=O)N(c2cccc(F)c2)c2cnccn2)CC1 |  |
| 0.0105 to 1.59 µM | 0.0027 to 2.65 µM | CN(C(=O)NC[C@H]1CC[C@H](COCC(=O)O)CC1)C(c1ccccc1)c1ccccc1 |  |
| 0.0105 to 1.59 µM | 0.0027 to 2.65 µM | CCOc1ccc(N(C(=O)OC[C@H]2CC[C@H](COCC(=O)O)CC2)c2cccc(F)c2)cc1 |  |
